We go through 41 compounds from patent publication US10940139B2, “Compounds that interact with the Ras superfamily for the treatment of cancers, inflammatory diseases, rasopathies, and fibrotic disease” (Shy Therapeutics LLC, priority 2017, dated 2021).

The target of assay [1] is KRas G12D/Q61H double mutant (Homo sapiens (Human), UniProt P01116, G12D/Q61H). The experiment in a line: Ras GTP binding domain inhibition assay (labeled GTP). The settings on record: at 20 μM; read-out: KRas G12D Q61H % Inh. A digest of the protocol:
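Fluorescence read-out of Cy3-/Cy5-GTP remaining bound to nickel-immobilized His-KRas after washes. Protein was coated overnight at 4° C, then exposed to compound for 3 h at room temperature before a 45 min labeled-GTP incubation.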

The target of another assay is Rac-1 (Homo sapiens (Human), UniProt P63000). The assay can be described thus: Rac inhibition assay (labeled GTP). Conditions: read-out: Rac-1 % Inh. Format: binding.
The target in a further assay is Rho-A (Homo sapiens (Human), UniProt P61586). The assay can be described thus: Rho inhibition assay (labeled GTP). Format: binding. The settings on record: read-out: Rho-A % Inh.
The next assay addresses KRas G12D mutant protein (Homo sapiens (Human), UniProt P01116, G12D). The assay can be described thus: Ras GTP binding domain inhibition assay (labeled GTP). Conditions: at 20 μM; read-out: KRas G12D % Inh. On the procedure:
The following method was developed as specific assay for KRas G12D mutant protein.
Buffer-I: • 50 mM Tris, pH 7.5 • 150 mM NaCl (optional) • 1 mM MgCl2 • 1 mM DTT. • KRas G12D mutant protein was expressed as a His-tagged protein. Purified His-KRas G12D protein was diluted in buffer-I to a final concentration of 3-10 μg/ml. • 200 μl of the diluted His-KRas G12D protein was added to a nickel coated 96 well plate and incubated overnight at 4° C. • The next day, wells were washed 3× in 200 μl of Buffer-I. • Then 200 μl of Buffer-I were added to each well in the presence of 1% DMSO. • Tested compounds were added to the protein-coated wells at a concentration of 20 μM, and incubated for 3 hours at room temperature. While performing IC50 measurements a serial dilution of all tested concentrations was prepared.
Then 22 μl of Cy3-GTP or Cy5-GTP was added to each well. The labeled GTP was incubated for 45 min. at room temperature. • Following GTP incubation, wells were washed 3× in Buffer-I, and 200 μl of Buffer-I were added to each well. • Following washes, the amount of bound labeled-GTP was measured with an Eppendorf AF2200 plate reader.

Assay [2] deals with MAPK phosphorylation in PANC-1 pancreatic cancer cell line. The assay can be described thus: MAPK cell-based phosphorylation assay (cell-direct ELISA, EGF stimulation). The settings on record: Homo sapiens; for inhibition at 10 µM: * = tested at 10 μM. Summed up: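 Cell-direct ELISA measured phospho-MAPK, with fluorescence read at 595 nm from AmpliFlu Red. Before fixation, PANC-1 cells starved overnight received 6 hours of compound (30 μM single dose or serial dilutions, 0.3% DMSO, 37° C), followed by 1.5 ng/ml EGF for 15 min.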

Sequence of Rho-A (P61586 whole entry, the tested form may be a part): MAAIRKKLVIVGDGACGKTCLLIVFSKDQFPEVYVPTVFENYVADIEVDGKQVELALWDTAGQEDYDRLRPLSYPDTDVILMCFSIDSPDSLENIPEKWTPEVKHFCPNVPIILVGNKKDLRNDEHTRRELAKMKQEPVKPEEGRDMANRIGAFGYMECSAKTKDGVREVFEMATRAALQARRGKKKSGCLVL
Sequence of KRas G12D/Q61H double mutant (P01116-2 other isoform, or with tags, fused parts or gaps G12D/Q61H): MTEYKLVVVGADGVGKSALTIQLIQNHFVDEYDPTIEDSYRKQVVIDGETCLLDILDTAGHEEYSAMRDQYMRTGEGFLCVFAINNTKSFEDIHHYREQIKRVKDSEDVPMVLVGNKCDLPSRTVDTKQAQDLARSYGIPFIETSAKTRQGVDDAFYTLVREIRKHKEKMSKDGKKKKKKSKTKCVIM
Sequence of KRas G12D mutant protein (P01116-2 other isoform, or with tags, fused parts or gaps G12D): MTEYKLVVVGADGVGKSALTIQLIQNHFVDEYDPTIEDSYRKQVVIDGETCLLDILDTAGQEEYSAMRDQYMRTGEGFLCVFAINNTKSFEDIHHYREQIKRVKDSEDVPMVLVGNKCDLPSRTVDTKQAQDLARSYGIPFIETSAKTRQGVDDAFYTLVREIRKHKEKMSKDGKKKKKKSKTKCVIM

`COc1nc(-c2ccccn2)nc2c(C3CCCCC3)csc12` [drawing 3798]: the inhibition at 20 µM (in assay [1]; on Rac-1; on Rho-A) was 1 to 25% each time.

In the case of `COc1ccc(-c2cc3nc(-c4ccccn4)nc(O)c3s2)cc1` [drawing 3881], the inhibition at 20 µM is 1 to 25% in assay [1], 0% at Rac-1 and 1 to 25% at Rho-A.

On to `COCCN(CCOC)c1nc(-c2ccccn2)nc2scc(C(=O)NCCc3ccc(OC)nc3)c12` [drawing 3681], for which the inhibition at 20 µM lay within 1 to 25% in assay [1], 51 to 75% at Rac-1 and 51 to 75% on Rho-A.

For `CC(C(=O)Nc1ccnc(-c2ccccn2)n1)c1ccc(C#N)cc1` (centres unmarked) [drawing 3683], the values for the inhibition at 20 µM (in assay [1]; at Rac-1; at Rho-A) were 1 to 25%, 76 to 100% and 51 to 75%, respectively.

Take `COc1cc(N2CCN(C(=O)c3csc4c(O)nc(-c5ccccn5)nc34)CC2)cc(OC)c1OC` [drawing 3647]: the inhibition at 20 µM in assay [1] is 0%; on Rac-1, 1 to 25%; at Rho-A, 25 to 50%.

On to `Cc1cc(OC(F)F)ccc1-c1csc2c(O)nc(-c3ccccn3)nc12` [drawing 3750], for which the inhibition at 20 µM in assay [1] lay in the range of 25 to 50%; at Rac-1 it was 25 to 50%; at Rho-A it was 1 to 25%.

Regarding `COc1cnc(CNC(=O)c2sc3c(O)nc(-c4ccccn4)nc3c2C)[nH]c1=O` [drawing 3842], the inhibition at 20 µM in assay [1] is 1 to 25%; at Rac-1 it was 0%; at Rho-A it was 1 to 25%.

Regarding `Oc1nc(-c2ccccn2)nc2c(-c3ccccc3)c(-c3ccncc3)sc12` [drawing 3866], the values for the inhibition at 20 µM (in assay [1]; at Rac-1; on Rho-A) were 0%, 76 to 100% and 51 to 75%, respectively.

As for `Cn1ccnc1-c1nc(O)c2c(-c3ccccc3)c(-c3ccccc3)sc2n1` [drawing 3854], the inhibition at 20 µM (in assay [1]; on Rac-1; at Rho-A) was 1 to 25% each time.

Regarding `Nc1nc(O)c2sc(-c3cccc(C(=O)NC4CCNC4=O)c3)cc2n1` (centres unmarked) [drawing 3860], the inhibition at 20 µM (in assay [1]; at Rac-1; on Rho-A) was 1 to 25% in each case.

Regarding `O=C(c1csc2c(O)nc(-c3ccccn3)nc12)N1CCN(c2ccc(F)cc2F)CC1` [drawing 3649], the inhibition at 20 µM in assay [1] lay within 51 to 75%; at Rac-1, 76 to 100%; at Rho-A it was 51 to 75%.

Regarding `COc1cc(C)c(-c2csc3c(O)nc(-c4ccccn4)nc23)cc1C` [drawing 3741], the inhibition at 20 µM lay within 25 to 50% in assay [1], 51 to 75% at Rac-1 and 25 to 50% at Rho-A.

Regarding `COc1ccncc1CCNC(=O)c1csc2nc(-c3ccccn3)nc(N3CCOCC3)c12` [drawing 3669], the results for the inhibition at 20 µM (in assay [1]; at Rac-1; at Rho-A) were 1 to 25%, 51 to 75% and 25 to 50%, respectively.

For the compound `Oc1nc(-c2ccccn2)nc2c(-c3cncc(F)c3)csc12` [drawing 3782], the inhibition at 20 µM (in assay [1]; at Rac-1; at Rho-A) was 1 to 25% throughout.

Take `COc1cnc(C(C)(C)N)nc1O` [drawing 3810]: the inhibition at 20 µM was 1 to 25% in assay [1], 1 to 25% on Rac-1 and 0% at Rho-A.

For `CC(C)(C)c1sc2c(O)nc(-c3ccccn3)nc2c1Br` [drawing 3872], the inhibition at 20 µM (in assay [1]; on Rac-1; at Rho-A) was 25 to 50% each time.

For `Oc1nc(-c2ccccn2)nc2c(Br)c(-c3ccccc3)sc12` [drawing 3871], the inhibition at 20 µM was 0% in assay [1], 25 to 50% at Rac-1 and 1 to 25% on Rho-A.

As to `COc1ccc(CCNC(=O)c2csc3nc(-c4ccccn4)nc(N4CCS(=O)(=O)CC4)c23)cn1` [drawing 3725], the inhibition at 20 µM lay within 25 to 50% in assay [1], 25 to 50% at Rac-1 and 1 to 25% at Rho-A.

On to `Oc1nc(-c2ccccn2)nc2c(-c3cncc(C(F)(F)F)c3)csc12` [drawing 3784], for which the inhibition at 20 µM in assay [1] lay within 1 to 25%; on Rho-A, 25 to 50%.

In the case of `COc1cc(-c2csc3c(O)nc(-c4ccccn4)nc23)cnc1C(F)(F)F` [drawing 3756], the inhibition at 20 µM (at KRas G12D mutant protein; in assay [1]; at Rac-1) was 51 to 75% in each case.

With `Cc1c(C(=O)N2CCN(c3ccccc3)CC2)sc2c(O)nc(-c3ccccn3)nc12` [drawing 3802], the inhibition at 20 µM (in assay [1]; on Rac-1) was 51 to 75% throughout.

Regarding `CCC(C)c1csc2c(OC)nc(-c3ccccn3)nc12` (centres unmarked) [drawing 3790], the inhibition at 20 µM at KRas G12D mutant protein was in the range of 25 to 50%; in assay [1], 51 to 75%; on Rho-A, 51 to 75%.

As for `COCCNc1nc(-c2nccn2C)nc2sc(-c3ccccc3)c(-c3ccccc3)c12` [drawing 3853], the inhibition at 20 µM at KRas G12D mutant protein lay in the range of 76 to 100%; in assay [1], 51 to 75%.

`Oc1nc(-c2ccccn2)nc2c(-c3ccc4c(c3)CCCO4)csc12` [drawing 3774]: the inhibition at 20 µM at KRas G12D mutant protein is 51 to 75%; in assay [1], 25 to 50%; on Rac-1, 25 to 50%.

For the compound `Oc1nc(-c2ccccn2)nc2c(-c3cc(C(F)(F)F)ccc3F)csc12` [drawing 3783], the inhibition at 20 µM in assay [1] was in the range of 1 to 25%; at Rac-1, 25 to 50%.

Turning to `COCc1ccc(-c2csc3c(O)nc(-c4ccccn4)nc23)cc1F` [drawing 3718], the values for the inhibition at 20 µM (at KRas G12D mutant protein; in assay [1]; at Rho-A) were 51 to 75%, 51 to 75% and 76 to 100%, respectively.

Consider `Oc1nc(-c2ccccn2)nc2c(C3CC3)csc12` [drawing 3836], for which the inhibition at 20 µM is 51 to 75% at KRas G12D mutant protein, 25 to 50% in assay [1] and 51 to 75% on Rac-1.

In the case of `Oc1nc(-c2ccccn2)nc2c(-c3ccccc3C(F)F)csc12` [drawing 3755], the inhibition at 20 µM (at KRas G12D mutant protein; in assay [1]) was 51 to 75% in each case.

For the compound `Cc1sc2c(O)nc(-c3ccccn3)nc2c1C(=O)N1CCN(Cc2cccc(O)c2)CC1` [drawing 3829], the values for the inhibition at 20 µM (at KRas G12D mutant protein; in assay [1]) were 25 to 50% and 51 to 75%, respectively.

`CN(C)Cc1ccc(-c2csc3c(O)nc(-c4ccccn4)nc23)cc1F` [drawing 3717]: the inhibition at 20 µM (on KRas G12D mutant protein; in assay [1]) was 76 to 100% throughout.

As to `O=C(c1csc2c(O)nc(-c3ccccn3)nc12)N1CCNC(c2cn[nH]c2)C1` (centres unmarked) [drawing 3730], the inhibition at 20 µM at KRas G12D mutant protein was 25 to 50%; in assay [1], 51 to 75%; at Rho-A, 76 to 100%.

As to `O=C(c1csc2c(O)nc(-c3ccccn3)nc12)N1CCNC(c2ccc(O)cc2)C1` (centres unmarked) [drawing 3697], the inhibition at 20 µM at KRas G12D mutant protein is 51 to 75%; in assay [1] it was 76 to 100%.

Turning to `CC(C)COc1ccc(-c2csc3c(O)nc(-c4ccccn4)nc23)cn1` [drawing 3749], the inhibition at 20 µM (on KRas G12D mutant protein; in assay [1]; on Rho-A) was 51 to 75% throughout.

As for `COc1ccc2c(c1)CCC2C(=O)Nc1nc(-c2ccccn2)nc2sccc12` (centres unmarked) [drawing 1177], the inhibition at 30 µM in assay [2] was 1 to 25%.

The compound `CC(C)C(=O)Nc1nc(CC(=O)Nc2nnc(-c3ccccn3)[nH]2)cs1` [drawing 1022] came in with an inhibition at 30 µM in assay [2] of 1 to 25%.

Take `O=S1(=O)CCC(Nc2nc(-c3ccccn3)nc3scc(-c4ccccc4)c23)C1` (centres unmarked) [drawing 1100]: in assay [2], the inhibition at 30 µM lay in the range of 1 to 25%.

Consider `CN(C)CCOc1cccc(-c2csc3c(O)nc(-c4ccccn4)nc23)c1` [drawing 3811], for which the inhibition at 20 µM (at KRas G12D mutant protein; in assay [1]) was 76 to 100% in each case.

`Cc1sc2c(O)nc(-c3ccccn3)nc2c1-c1ccncc1` [drawing 1258] came in with an inhibition at 10 µM in assay [2] of 51 to 75%.

`O=C(c1csc2c(O)nc(-c3ccccn3)nc12)N1CCNC(c2ccc(Cl)cc2)C1` (centres unmarked) [drawing 1285] showed an inhibition at 10 µM in assay [2] of 0%.

In assay [2], `COCC(C)Nc1nc(-c2ccccn2)nc2sc(C)c(-c3ccccc3)c12` (centres unmarked) [drawing 1040] returned an IC50 of 11 to 30 µM and an inhibition at 30 µM of 76 to 100%.

For `O=C(c1csc2c(O)nc(-c3ccccn3)nc12)N1CCNC(Cc2ccccc2)C1` (centres unmarked) [drawing 1154], the inhibition at 30 µM in assay [2] lay within 1 to 25%.
